Experimental data reported in patent US20170238571A1, “A SYNERGISTIC COMPOSITION COMPRISING A MIXTURE OF BACTERIA OF THE GENERA LACTOBACILLUS AND PROPIONOBACTERIUM PARTICULARLY USEFUL TO REDUCE OR ELIMINATE PATHOGEN CONTAMINATION IN SOYBEN MEAL AND ITS DERIVATIVES; METHODS AND USES THEREOF” (Molinos Río de la Plata S.A., priority 2014, published 2017).

What was measured:
Assay type in all cases: cell-based
[1] = test system: Salmonella (S. typhimurium, S. enteritidis, S. heidelberg); assay: Effectiveness of mixes against Salmonella in soybean meal at different temperatures; conditions: for Average (n = 3): Salmonella count; for LOG10 (CFU/g): Salmonella
Method: In order to assess the effectiveness of the mix of the invention in the matrix of interest, an appropriate working protocol was prepared. Initially, 500 g of soybean meal were infected with 50 mL of Salmonella solution whose composition was: 10^6 CFUS. typhimurium/mL, 10^6 CFUS. enteritidis /mLand 10^6 CFUS. heidelberg /mL in equal amounts. […] 50 g of the wet meal obtained (≈25% moisture content on dry basis) were mixed within the dry meal (≈10% moisture content dry basis) and were stirred for 10 minutes. […] Daily determinations of Salmonella colony forming units were performed on this contaminated meal. To this end, 40.5 g of BPW to 4.5 g of the resulting meal were added and vigorously stirred, and then 100μL of this solution, were plated onto Salmonella-Shigella agar (SS Agar). When microorganisms were used in the protecting mixes, concentrations were carefully balanced, and the amount of bacteria added was always the same.
In the cases in which solutions with ferments were used for protection purposes, cell concentration was of about 10^8 CFU/mL.
The following tests were carried out to assess the effectiveness of different mixes under different conditions. To assess extreme temperatures, meal products were stored at 5, 25, and 32° C., after contamination and protection, respectively. Samples were taken every 24 hours and triplicate determinations of Salmonella, lactic and propionic bacteria were made.

[2] = test system: Aspergillus niger ATCC 16404; assay: Protection against fungi: A. niger in premixed soybean meal; conditions: 25° C. - 12% DBM; for Average (n = 3): A. niger count; for LOG10 (CFU/g): A. niger
Method: For the determination of fungal CFU, 20 grams of soybean meal were added to 180 mL of sterile tap water with Tween 80, which was vigorously stirred. Serial dilutions of the sample were carried out in order to perform recounting on the appropriate plates, in a Czapek-Dox agar medium.

Salmonella = assay: Residual effect: contamination and recontamination with Salmonella after treatment of soybean meal; conditions: 25° C. - 12% DBM; for Average (n = 3): Salmonella count; for LOG10 (CFU/g): Salmonella
Method: In order to assess the effectiveness of the mix of the invention in the matrix of interest, an appropriate working protocol was prepared. Initially, 500 g of soybean meal were infected with 50 mL of Salmonella solution whose composition was: 10^6 CFUS. typhimurium/mL, 10^6 CFUS. enteritidis /mLand 10^6 CFUS. heidelberg /mL in equal amounts. […] Daily determinations of Salmonella colony forming units were performed on this contaminated meal. To this end, 40.5 g of BPW to 4.5 g of the resulting meal were added and vigorously stirred, and then 100μL of this solution, were plated onto Salmonella-Shigella agar (SS Agar). When microorganisms were used in the protecting mixes, concentrations were carefully balanced, and the amount of bacteria added was always the same.
For this reason it was decided to study the response of meals protected with different solutions, by contaminating them at different times after protection. Given the complexity of the logistics of meal products, they were tested at two different times: initial contamination and recontamination on the first week after treatment; and, contamination on the fourth week with subsequent recontamination on the fifth week after treatment. In all cases, itl was contaminated and recontaminated with Salmonella solutions whose concentration was approximately 10^6 CFU/mL (as previously described).

[3] = day 8, after RECONTAMINATION (first week)
[4] = day 9, after RECONTAMINATION (first week)
[5] = day 11, after RECONTAMINATION (first week)
[6] = day 12, after RECONTAMINATION (first week)
[7] = day 13, after RECONTAMINATION (first week)
[8] = day 14, after RECONTAMINATION (first week)
[9] = day 15, after RECONTAMINATION (first week)
[10] = day 37, contamination on the fourth week after treatment
[11] = day 38, after RECONTAMINATION (fifth week)
[12] = day 39, after RECONTAMINATION (fifth week)
[13] = day 41, after RECONTAMINATION (fifth week)
[14] = day 42, after RECONTAMINATION (fifth week)
[15] = day 44, after RECONTAMINATION (fifth week)

CCC(=O)O [Propionic Acid] was tested, and the “Average (n = 3)” value ([1]; 5° C. - 12% DBM, 0 days) was 199.76, the “Average (n = 3)” value ([1]; 5° C. - 12% DBM, 1 day) was 165 and the “Average (n = 3)” value ([1]; 5° C. - 12% DBM, 2 days) was 131.3. The “Average (n = 3)” value ([1]; 5° C. - 12% DBM, 3 days) was 90.67, the “Average (n = 3)” value ([1]; 5° C. - 12% DBM, 4 days) was 61 and the “Average (n = 3)” value ([1]; 5° C. - 12% DBM, 5 days) was 57. The “Average (n = 3)” value ([1]; 5° C. - 12% DBM, 6 days) was 38, the “Average (n = 3)” value ([1]; 25° C. - 12% DBM, 0 days) was 199.67 and the “Average (n = 3)” value ([1]; 25° C. - 12% DBM, 1 day) was 145.33. For the same compound, the “Average (n = 3)” value ([1]; 25° C. - 12% DBM, 2 days) was 110, the “Average (n = 3)” value ([1]; 25° C. - 12% DBM, 3 days) was 90 and the “Average (n = 3)” value ([1]; 25° C. - 12% DBM, 4 days) was 60.67. The “Average (n = 3)” value ([1]; 25° C. - 12% DBM, 5 days) was 57, the “Average (n = 3)” value ([1]; 25° C. - 12% DBM, 6 days) was 38 and the “Average (n = 3)” value ([1]; 32° C. - 12% DBM, 0 days) was 199.67. For the same compound, the “Average (n = 3)” value ([1]; 32° C. - 12% DBM, 1 day) was 175, the “Average (n = 3)” value ([1]; 32° C. - 12% DBM, 2 days) was 130 and the “Average (n = 3)” value ([1]; 32° C. - 12% DBM, 3 days) was 100.33. The “Average (n = 3)” value ([1]; 32° C. - 12% DBM, 4 days) was 90.67, the “Average (n = 3)” value ([1]; 32° C. - 12% DBM, 5 days) was 77 and the “Average (n = 3)” value ([1]; 32° C. - 12% DBM, 6 days) was 58. The “LOG10 (CFU/g)” value ([1]; 5° C. - 12% DBM, 0 days) was 3.65 LOG10 (CFU/g), the “LOG10 (CFU/g)” value ([1]; 5° C. - 12% DBM, 1 day) was 3.56 LOG10 (CFU/g) and the “LOG10 (CFU/g)” value ([1]; 5° C. - 12% DBM, 2 days) was 3.47 LOG10 (CFU/g). For the same compound, the “LOG10 (CFU/g)” value ([1]; 5° C. - 12% DBM, 3 days) was 3.30 LOG10 (CFU/g), the “LOG10 (CFU/g)” value ([1]; 5° C. - 12% DBM, 4 days) was 3.13 LOG10 (CFU/g) and the “LOG10 (CFU/g)” value ([1]; 5° C. - 12% DBM, 5 days) was 3.10 LOG10 (CFU/g). For the same compound, the “LOG10 (CFU/g)” value ([1]; 5° C. - 12% DBM, 6 days) was 2.93 LOG10 (CFU/g), the “LOG10 (CFU/g)” value ([1]; 25° C. - 12% DBM, 0 days) was 3.65 LOG10 (CFU/g) and the “LOG10 (CFU/g)” value ([1]; 25° C. - 12% DBM, 1 day) was 3.51 LOG10 (CFU/g). For the same compound, the “LOG10 (CFU/g)” value ([1]; 25° C. - 12% DBM, 2 days) was 3.39 LOG10 (CFU/g), the “LOG10 (CFU/g)” value ([1]; 25° C. - 12% DBM, 3 days) was 3.30 LOG10 (CFU/g) and the “LOG10 (CFU/g)” value ([1]; 25° C. - 12% DBM, 4 days) was 3.13 LOG10 (CFU/g). For the same compound, the “LOG10 (CFU/g)” value ([1]; 25° C. - 12% DBM, 5 days) was 3.10 LOG10 (CFU/g), the “LOG10 (CFU/g)” value ([1]; 25° C. - 12% DBM, 6 days) was 2.93 LOG10 (CFU/g) and the “LOG10 (CFU/g)” value ([1]; 32° C. - 12% DBM, 0 days) was 3.65 LOG10 (CFU/g). For the same compound, the “LOG10 (CFU/g)” value ([1]; 32° C. - 12% DBM, 1 day) was 3.59 LOG10 (CFU/g), the “LOG10 (CFU/g)” value ([1]; 32° C. - 12% DBM, 2 days) was 3.46 LOG10 (CFU/g) and the “LOG10 (CFU/g)” value ([1]; 32° C. - 12% DBM, 3 days) was 3.35 LOG10 (CFU/g). For the same compound, the “LOG10 (CFU/g)” value ([1]; 32° C. - 12% DBM, 4 days) was 3.30 LOG10 (CFU/g), the “LOG10 (CFU/g)” value ([1]; 32° C. - 12% DBM, 5 days) was 3.23 LOG10 (CFU/g) and the “LOG10 (CFU/g)” value ([1]; 32° C. - 12% DBM, 6 days) was 3.11 LOG10 (CFU/g). For the same compound, the “Average (n = 3)” value ([2]; 0 days) was 199.76, the “Average (n = 3)” value ([2]; 1 day) was 152 and the “Average (n = 3)” value ([2]; 2 days) was 121.33. The “Average (n = 3)” value ([2]; 3 days) was 91.67, the “Average (n = 3)” value ([2]; 4 days) was 78 and the “Average (n = 3)” value ([2]; 5 days) was 57. The “Average (n = 3)” value ([2]; 6 days) was 38, the “LOG10 (CFU/g)” value ([2]; 0 days) was 3.65 LOG10 (CFU/g) and the “LOG10 (CFU/g)” value ([2]; 1 day) was 3.53 LOG10 (CFU/g). For the same compound, the “LOG10 (CFU/g)” value ([2]; 2 days) was 3.43 LOG10 (CFU/g), the “LOG10 (CFU/g)” value ([2]; 3 days) was 3.31 LOG10 (CFU/g) and the “LOG10 (CFU/g)” value ([2]; 4 days) was 3.24 LOG10 (CFU/g). The “LOG10 (CFU/g)” value ([2]; 5 days) was 3.10 LOG10 (CFU/g), the “LOG10 (CFU/g)” value ([2]; 6 days) was 2.93 LOG10 (CFU/g) and the “Average (n = 3)” value (Salmonella; day 2, initial contamination) was 130. The “Average (n = 3)” value (Salmonella; day 3, initial contamination) was 100.3, the “Average (n = 3)” value (Salmonella; day 4, initial contamination) was 90.5 and the “Average (n = 3)” value (Salmonella; day 5, initial contamination) was 77. The “Average (n = 3)” value (Salmonella; day 6, initial contamination) was 58, the “Average (n = 3)” value (Salmonella; day 7, initial contamination) was 32 and the “Average (n = 3)” value (Salmonella; [3]) was 215. The “Average (n = 3)” value (Salmonella; [4]) was 189.33, the “Average (n = 3)” value (Salmonella; day 10, after RECONTAMINATION (first week)) was 144.33 and the “Average (n = 3)” value (Salmonella; [5]) was 109. The “Average (n = 3)” value (Salmonella; [6]) was 96.67, the “Average (n = 3)” value (Salmonella; [7]) was 70.67 and the “Average (n = 3)” value (Salmonella; [8]) was 48.67. The “Average (n = 3)” value (Salmonella; [9]) was 40, the “Average (n = 3)” value (Salmonella; day 32, contamination on the fourth week after treatment) was 130 and the “Average (n = 3)” value (Salmonella; day 33, contamination on the fourth week after treatment) was 120.3. For the same compound, the “Average (n = 3)” value (Salmonella; day 34, contamination on the fourth week after treatment) was 90.5, the “Average (n = 3)” value (Salmonella; day 35, contamination on the fourth week after treatment) was 77 and the “Average (n = 3)” value (Salmonella; day 36, contamination on the fourth week after treatment) was 58. The “Average (n = 3)” value (Salmonella; [10]) was 39, the “Average (n = 3)” value (Salmonella; [11]) was 247 and the “Average (n = 3)” value (Salmonella; [12]) was 189. The “Average (n = 3)” value (Salmonella; day 40, after RECONTAMINATION (fifth week)) was 174.34, the “Average (n = 3)” value (Salmonella; [13]) was 156.34 and the “Average (n = 3)” value (Salmonella; [14]) was 136.34. For the same compound, the “Average (n = 3)” value (Salmonella; day 43, after RECONTAMINATION (fifth week)) was 111.67, the “Average (n = 3)” value (Salmonella; [15]) was 88.34 and the “Average (n = 3)” value (Salmonella; day 45, after RECONTAMINATION (fifth week)) was 77. The “LOG10 (CFU/g)” value (Salmonella; [3]) was 3.68 LOG10 (CFU/g), the “LOG10 (CFU/g)” value (Salmonella; [4]) was 3.62 LOG10 (CFU/g) and the “LOG10 (CFU/g)” value (Salmonella; [5]) was 3.38 LOG10 (CFU/g). For the same compound, the “LOG10 (CFU/g)” value (Salmonella; [6]) was 3.33 LOG10 (CFU/g), the “LOG10 (CFU/g)” value (Salmonella; [7]) was 3.20 LOG10 (CFU/g) and the “LOG10 (CFU/g)” value (Salmonella; [8]) was 3.03 LOG10 (CFU/g). For the same compound, the “LOG10 (CFU/g)” value (Salmonella; [9]) was 2.95 LOG10 (CFU/g), the “LOG10 (CFU/g)” value (Salmonella; [10]) was 2.94 LOG10 (CFU/g) and the “LOG10 (CFU/g)” value (Salmonella; [11]) was 3.74 LOG10 (CFU/g). The “LOG10 (CFU/g)” value (Salmonella; [12]) was 3.62 LOG10 (CFU/g), the “LOG10 (CFU/g)” value (Salmonella; [13]) was 3.54 LOG10 (CFU/g) and the “LOG10 (CFU/g)” value (Salmonella; [14]) was 3.48 LOG10 (CFU/g). For the same compound, the “LOG10 (CFU/g)” value (Salmonella; [15]) was 3.29 LOG10 (CFU/g).
